The target in data set [1] is Metabotropic glutamate receptor 2 (Rattus norvegicus, UniProt P31421). In words: Positive allosteric modulation of rat mGluR2 expressed in HEK293 cells co-expressing Galpha15 G protein assessed as increase in glutamate-induced intracellular calcium release by FLIPR assay. The class given is functional, cell-based.
Data set [2] has as its target D(2) dopamine receptor (Rattus norvegicus, UniProt P61169). In words: Displacement of [3H]spiperone from dopamine D2 receptor in rat corpus striatum by beta plate scintillation counting. The class given is tissue-based. On the technique in general: Loss of bound radioactivity is the signal in a displacement assay; it reports binding, not function.
A short description of data set [3]: Cmax in rat brain at 10 mg/kg, po. Details: dose 10 mg/kg, route oral. The class given is ADME, organism-based.
Data set [4] in a line: Permeability from apical to basolateral side of MDR1 transfected MDCK cells at 1 uM. The conditions noted are these: dog, read-out: permeability. The class given is ADME, cell-based, Canis lupus familiaris.
Data set [5] is described as follows: Ratio of drug level in brain to plasma in rat at 3.2 mg/kg, sc after 60 mins. Details: dose 3.2 mg/kg, route subcutaneous. The format is ADME, organism-based.
A short description of data set [6]: Plasma clearance in rat at 1 mg/kg, iv. The format is ADME, organism-based. Further details: dose 1 mg/kg, route intravenous.
The test system of data set [7] is MDCK. Kind of data set: Efflux ratio of permeability from […] of MDR1 transfected MDCK cells at 1 uM. The settings on record: dog. The class given is ADME, cell-based, Canis lupus familiaris.
Data set [8] is described as follows: Oral bioavailability in rat at 10 mg/kg. The conditions noted are these: in vivo. The class given is ADME, organism-based.
In data set [9] the test system is HEK293. In words: Selectivity ratio of Ki for dopamine D2 receptor in rat corpus striatum to EC50 for rat mGluR2 expressed in HEK293 cells. The format is cell-based.
The target of data set [10] is Metabotropic glutamate receptor 2 (Homo sapiens, UniProt Q14416). Kind of data set: Positive allosteric modulation of human mGluR2 expressed in HEK293 cells co-expressing Galpha15 G protein assessed as increase in glutamate-induced intracellular calcium release by FLIPR assay. The format is functional, cell-based. (A change in cytosolic calcium serves as a functional read-out for many receptors and channels.)

Data set [11] concerns Mus musculus. Kind of data set: Antipsychotic activity in sc dosed CD1 mouse assessed as inhibition of mescaline-induced scratching behavioral response administered 20 mins before mescalin challenge measured for 12 mins. The format is functional.
Data set [12] has as its target Metabotropic glutamate receptor 1 (Homo sapiens) (UniProt Q13255). Kind of data set: Antagonist activity at mGlu1 receptor at up to 10 uM. The format is functional.
The nature of data set [13]: Ratio of drug level in brain to plasma in mouse at 10 mg/kg, sc after 60 mins. Further details: dose 10 mg/kg, route subcutaneous. The class given is ADME, organism-based.
Data set [14] relates to Brain. Kind of data set: Fraction unbound in rat brain by LC-MS/MS assay. The format is ADME, tissue-based.
Data set [15] in a line: Plasma clearance in rat at 0.5 mg/kg, iv. The class given is ADME, organism-based. Details: dose 0.5 mg/kg, route intravenous.
Data set [16] can be described thus: Cmax in rat brain at 3 mg/kg, po. The format is ADME, organism-based. Details: dose 3 mg/kg, route oral.
Data set [17] deals with Metabotropic glutamate receptor 5 (Homo sapiens) (UniProt P41594). Kind of data set: Antagonist activity at mGlu5 receptor at up to 10 uM. The format is functional.
Data set [18] can be described thus: Oral bioavailability in rat at 3 mg/kg. The class given is ADME, organism-based. The settings on record: in vivo.
Data set [19] concerns the target Metabotropic glutamate receptor 5 (Homo sapiens) (UniProt P41594). Kind of data set: Positive allosteric modulation of mGlu5 receptor at up to 10 uM.
The subject of data set [20] is Mus musculus. In words: Antipsychotic activity in sc dosed mouse assessed as inhibition of methamphetamine-induced hyperlocomotion measured for 60 mins. The format is functional.
Data set [21] concerns the target Metabotropic glutamate receptor 1 (Homo sapiens) (UniProt Q13255). Kind of data set: Agonist activity at mGlu1 receptor at up to 10 uM. The class given is functional.
Data set [22] has as its target Metabotropic glutamate receptor 5 (Homo sapiens) (UniProt P41594). Kind of data set: Agonist activity at mGlu5 receptor at up to 10 uM. The class given is functional.
A short description of data set [23]: Cmax in rat brain at 5 mg/kg, po. The format is ADME, organism-based. Further details: dose 5 mg/kg, route oral.

The EC50 is the concentration that produces a half-maximal response. The Ki is the dissociation constant of the complex between target and ligand, obtained from inhibition or displacement. Low values mean tighter binding, high ones weaker binding. As usually defined, the Cmax is the peak of the concentration-time curve. For orientation: Kp means tissue or fluid exposure divided by exposure in the circulation. For orientation: clearance means a measure of how efficiently the substance is removed, as volume per time. Broadly, the bioavailability is dose-corrected exposure relative to a reference, in per cent.

Active and inactive are the calls of the source. No cut-off for these calls is given here.

Chain of Metabotropic glutamate receptor 2 (Rattus norvegicus, UniProt P31421) (P31421 whole entry): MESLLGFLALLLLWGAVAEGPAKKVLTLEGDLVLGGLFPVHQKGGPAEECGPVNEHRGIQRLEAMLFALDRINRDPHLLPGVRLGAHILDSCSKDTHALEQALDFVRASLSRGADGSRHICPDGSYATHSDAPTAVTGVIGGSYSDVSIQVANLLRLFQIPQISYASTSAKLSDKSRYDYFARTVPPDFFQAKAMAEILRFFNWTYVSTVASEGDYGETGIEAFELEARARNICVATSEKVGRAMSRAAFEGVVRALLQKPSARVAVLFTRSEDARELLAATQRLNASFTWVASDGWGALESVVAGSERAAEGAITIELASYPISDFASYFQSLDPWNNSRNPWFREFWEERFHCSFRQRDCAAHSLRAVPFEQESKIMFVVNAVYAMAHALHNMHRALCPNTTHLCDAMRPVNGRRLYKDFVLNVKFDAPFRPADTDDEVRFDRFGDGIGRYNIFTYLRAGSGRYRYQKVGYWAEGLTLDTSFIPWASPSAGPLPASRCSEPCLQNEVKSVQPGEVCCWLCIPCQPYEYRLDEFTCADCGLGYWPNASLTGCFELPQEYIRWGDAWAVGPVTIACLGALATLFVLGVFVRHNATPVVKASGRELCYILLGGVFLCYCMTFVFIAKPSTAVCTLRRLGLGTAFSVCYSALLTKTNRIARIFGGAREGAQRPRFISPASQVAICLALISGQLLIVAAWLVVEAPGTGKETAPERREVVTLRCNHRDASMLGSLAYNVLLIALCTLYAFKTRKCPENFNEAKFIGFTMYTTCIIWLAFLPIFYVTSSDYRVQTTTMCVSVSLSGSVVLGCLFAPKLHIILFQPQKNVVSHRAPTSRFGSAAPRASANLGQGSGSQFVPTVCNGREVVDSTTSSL
Chain of D(2) dopamine receptor (P61169 whole entry): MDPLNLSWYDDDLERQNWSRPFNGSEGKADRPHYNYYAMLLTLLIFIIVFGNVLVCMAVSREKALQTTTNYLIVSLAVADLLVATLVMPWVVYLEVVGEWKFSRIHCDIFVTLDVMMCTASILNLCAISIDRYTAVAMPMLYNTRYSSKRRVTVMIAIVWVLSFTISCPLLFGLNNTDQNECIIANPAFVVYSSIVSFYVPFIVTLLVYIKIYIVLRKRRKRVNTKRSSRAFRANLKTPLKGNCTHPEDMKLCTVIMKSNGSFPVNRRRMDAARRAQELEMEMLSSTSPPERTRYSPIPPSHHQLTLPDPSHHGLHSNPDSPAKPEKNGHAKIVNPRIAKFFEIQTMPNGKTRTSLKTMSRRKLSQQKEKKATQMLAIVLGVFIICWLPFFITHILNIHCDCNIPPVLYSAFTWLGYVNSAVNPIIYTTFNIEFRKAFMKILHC
Chain of Metabotropic glutamate receptor 1 (Homo sapiens) (Q13255 19-1194 limits assumed): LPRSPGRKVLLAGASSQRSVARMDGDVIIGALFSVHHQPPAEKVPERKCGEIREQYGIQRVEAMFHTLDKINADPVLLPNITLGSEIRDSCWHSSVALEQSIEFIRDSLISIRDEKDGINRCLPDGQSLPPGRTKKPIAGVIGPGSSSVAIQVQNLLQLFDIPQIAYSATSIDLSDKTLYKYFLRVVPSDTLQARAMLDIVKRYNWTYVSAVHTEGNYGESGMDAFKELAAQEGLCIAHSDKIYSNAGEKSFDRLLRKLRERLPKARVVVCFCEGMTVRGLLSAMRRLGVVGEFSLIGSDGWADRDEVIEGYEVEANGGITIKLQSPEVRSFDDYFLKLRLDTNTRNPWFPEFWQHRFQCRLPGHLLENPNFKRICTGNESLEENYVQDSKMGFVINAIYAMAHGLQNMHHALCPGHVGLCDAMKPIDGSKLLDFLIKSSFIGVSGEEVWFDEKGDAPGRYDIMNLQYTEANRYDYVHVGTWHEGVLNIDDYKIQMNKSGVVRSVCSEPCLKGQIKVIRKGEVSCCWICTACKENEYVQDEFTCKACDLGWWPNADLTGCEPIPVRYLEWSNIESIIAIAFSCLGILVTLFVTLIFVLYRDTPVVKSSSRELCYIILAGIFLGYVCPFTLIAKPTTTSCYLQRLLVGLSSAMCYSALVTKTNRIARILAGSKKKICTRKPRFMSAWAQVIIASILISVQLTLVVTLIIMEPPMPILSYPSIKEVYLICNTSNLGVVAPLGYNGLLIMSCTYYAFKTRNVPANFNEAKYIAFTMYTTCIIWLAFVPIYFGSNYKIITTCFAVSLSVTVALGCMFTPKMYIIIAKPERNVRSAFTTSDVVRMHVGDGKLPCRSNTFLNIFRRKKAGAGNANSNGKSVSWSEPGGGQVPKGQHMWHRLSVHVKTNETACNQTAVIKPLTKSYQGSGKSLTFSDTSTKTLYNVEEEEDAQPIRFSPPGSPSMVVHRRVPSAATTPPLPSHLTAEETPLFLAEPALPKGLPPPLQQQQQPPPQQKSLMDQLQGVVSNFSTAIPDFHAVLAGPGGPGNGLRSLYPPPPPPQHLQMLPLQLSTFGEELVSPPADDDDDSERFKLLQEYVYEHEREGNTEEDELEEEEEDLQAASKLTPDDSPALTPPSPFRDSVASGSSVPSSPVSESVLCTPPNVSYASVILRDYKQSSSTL
Chain of Metabotropic glutamate receptor 5 (Homo sapiens) (P41594 21-1212 limits assumed): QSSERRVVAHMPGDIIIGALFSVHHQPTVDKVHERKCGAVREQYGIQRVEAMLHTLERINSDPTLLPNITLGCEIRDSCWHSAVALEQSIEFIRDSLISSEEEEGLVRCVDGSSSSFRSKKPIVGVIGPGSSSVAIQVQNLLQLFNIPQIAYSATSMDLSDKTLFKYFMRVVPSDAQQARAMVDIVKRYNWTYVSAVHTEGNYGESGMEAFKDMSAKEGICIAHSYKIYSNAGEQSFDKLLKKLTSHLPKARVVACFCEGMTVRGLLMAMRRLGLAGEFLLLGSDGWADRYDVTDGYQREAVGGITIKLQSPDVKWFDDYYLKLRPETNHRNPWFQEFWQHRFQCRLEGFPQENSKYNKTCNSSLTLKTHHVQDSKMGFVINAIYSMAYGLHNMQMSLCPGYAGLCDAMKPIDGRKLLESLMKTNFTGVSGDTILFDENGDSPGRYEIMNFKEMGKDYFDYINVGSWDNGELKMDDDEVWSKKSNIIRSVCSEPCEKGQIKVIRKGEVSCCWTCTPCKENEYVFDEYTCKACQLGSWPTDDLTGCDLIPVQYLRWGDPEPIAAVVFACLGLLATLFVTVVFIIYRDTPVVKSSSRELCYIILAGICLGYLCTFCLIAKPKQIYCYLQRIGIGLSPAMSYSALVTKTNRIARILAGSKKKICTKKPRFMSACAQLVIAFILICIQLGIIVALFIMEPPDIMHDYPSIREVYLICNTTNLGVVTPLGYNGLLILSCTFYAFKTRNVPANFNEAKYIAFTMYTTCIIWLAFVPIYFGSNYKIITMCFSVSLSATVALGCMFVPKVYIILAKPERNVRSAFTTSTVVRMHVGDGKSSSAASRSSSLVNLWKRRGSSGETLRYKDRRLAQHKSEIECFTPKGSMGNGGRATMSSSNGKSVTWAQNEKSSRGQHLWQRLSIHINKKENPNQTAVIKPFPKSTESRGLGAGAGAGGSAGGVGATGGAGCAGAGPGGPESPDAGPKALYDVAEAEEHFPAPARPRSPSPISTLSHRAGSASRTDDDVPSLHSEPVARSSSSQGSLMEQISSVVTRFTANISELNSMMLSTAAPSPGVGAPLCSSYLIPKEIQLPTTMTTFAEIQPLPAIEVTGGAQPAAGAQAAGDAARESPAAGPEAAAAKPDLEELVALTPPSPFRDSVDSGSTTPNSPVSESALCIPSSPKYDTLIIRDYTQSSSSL
Chain of Metabotropic glutamate receptor 2 (Homo sapiens, UniProt Q14416) (Q14416 whole entry): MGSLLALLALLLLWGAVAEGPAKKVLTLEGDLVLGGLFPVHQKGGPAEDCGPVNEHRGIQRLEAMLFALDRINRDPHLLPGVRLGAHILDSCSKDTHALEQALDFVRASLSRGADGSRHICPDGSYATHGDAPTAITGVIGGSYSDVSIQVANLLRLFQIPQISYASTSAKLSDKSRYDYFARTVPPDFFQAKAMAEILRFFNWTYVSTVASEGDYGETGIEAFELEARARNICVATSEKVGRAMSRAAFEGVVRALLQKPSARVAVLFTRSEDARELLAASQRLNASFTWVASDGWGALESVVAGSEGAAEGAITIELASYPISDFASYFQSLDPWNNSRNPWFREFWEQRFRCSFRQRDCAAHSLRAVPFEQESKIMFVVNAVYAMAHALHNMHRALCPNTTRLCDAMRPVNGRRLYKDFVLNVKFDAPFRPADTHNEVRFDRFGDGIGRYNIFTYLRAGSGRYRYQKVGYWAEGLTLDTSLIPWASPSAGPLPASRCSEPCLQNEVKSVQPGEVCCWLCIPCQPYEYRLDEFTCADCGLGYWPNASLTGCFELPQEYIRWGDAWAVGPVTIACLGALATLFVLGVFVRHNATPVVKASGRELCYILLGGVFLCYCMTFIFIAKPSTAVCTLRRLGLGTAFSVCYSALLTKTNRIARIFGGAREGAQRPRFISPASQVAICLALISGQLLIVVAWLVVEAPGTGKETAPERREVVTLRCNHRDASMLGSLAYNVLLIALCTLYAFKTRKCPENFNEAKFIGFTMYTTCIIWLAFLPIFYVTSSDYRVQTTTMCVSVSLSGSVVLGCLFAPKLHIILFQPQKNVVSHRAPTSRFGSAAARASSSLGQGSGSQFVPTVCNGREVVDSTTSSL

With `Cn1c(CN2[C@@H]3CC[C@H]2CC(c2ccc(C(F)(F)F)cc2)C3)nc2ncccc21` (stereo partly specified), the EC50 in data set [1] was found to be 184 nM. For the same compound, the Ki in data set [2] amounted to 355 nM.

As to `C[C@H]1CN(Cc2nc3ncccc3n2C)CC[C@H]1c1ccc(Cl)cc1F`, in data set [1], the half-maximal effective concentration (EC50) is 28 nM. In addition, the affinity in [2], expressed as Ki, was 1620 nM.

Consider `Cn1c(CN2CCC(c3ccccc3)CC2)nc2ccccc21`, for which, in [1], the EC50 stood at 212 nM.

With `Cn1c(CN2CC[C@@H](c3ccc(C(F)(F)F)cc3)C(C)(C)C2)nc2ncccc21`, the 50% effective concentration (EC50) in [1] is 745 nM. For the same compound, the Ki in [2] was more than 2800 nM.

In the case of `Cn1c(CN2CCC(c3ccc(C(F)(F)F)cc3)CC2)nc2ncccc21`, the EC50 in data set [1] turned out to be 48 nM; in [10], 43 nM. This compound yielded a Cmax in data set [3] of 5210 nM. In addition, the Papp A→B at 1 µM in data set [4] stood at 30 ×10⁻⁶ cm/s. In addition, in data set [5], the partition ratio (Kp) at 1 h turned out to be 5. Further, the clearance in data set [6] came to 5.4 mL/min/kg. Moreover, the values for the Ratio in data set [7] and in data set [9] were 1.4 and 8, respectively. For the same compound, in [8], the bioavailability was 100%. The compound further yielded an inhibition constant Ki in data set [2] of 404 nM.

On to `C[C@H]1CN(Cc2nc3ncccc3n2C)CC[C@H]1c1ccc(C(F)(F)F)cc1`, for which, in [1], the EC50 came to 33 nM. In [2], this compound returned a Ki of more than 2800 nM.

Regarding `Cn1c(CN2CCC(c3ccc(C(F)(F)F)cc3)C(O)C2)nc2ncccc21` (trans isomer), the EC50 in data set [1] is more than 10000 nM.

As to `Cn1c(CN2CCC(c3ccc(OC(F)(F)F)cc3F)CC2)nc2ncccc21`, the EC50 in data set [1] turned out to be 25 nM. This compound showed a Ki in data set [2] of 1180 nM.

As to `C[C@H]1CN(Cc2nc3ncccc3n2C)CC[C@H]1c1ccc(OC(F)(F)F)cc1F`, the inhibition entry in data set [11] and in [20] was “Dose-dependent effect” each time. In addition, the minimal effective dose in data set [11] (read-out: MED) was 10 mg/kg; in [20] (1 h, read-out: MED), 17.8 mg/kg. In data set [4], the Papp A→B at 1 µM was 14 ×10⁻⁶ cm/s. Also, the Kp at 1 h in [5] was 4; in data set [13], 1.2. The result in data set [12], in data set [17], in [19], in data set [21] and in data set [22] was inactive. Also, the Fu in data set [14] worked out at 0.3%. This compound gave a clearance in [15] of 4.5 mL/min/kg. This compound came in with a Cmax in data set [16] of 1070 nM. Besides, the bioavailability in data set [18] worked out at 50%. This compound showed a Ki in data set [2] of more than 4680 nM.

`C[C@H]1CN(Cc2nc3ncccc3n2C)CC[C@H]1c1ccc(C(F)(F)F)cc1F`: the figures for the EC50 in [1] and in [10] were 9 nM and 3 nM, respectively. This compound also registered a Cmax in [3] of 3120 nM. Further, in [4], the Papp A→B at 1 µM amounted to 26 ×10⁻⁶ cm/s. For the same compound, the Kp at 1 h in data set [5] is 7; in [13] it was 1.9. For the same compound, the outcome in data set [12], in data set [17], in data set [19], in [21] and in data set [22] was inactive. For the same compound, in [6], the clearance was found to be 7.5 mL/min/kg. Also, in [14], the Fu is 0.5%. The Ratio in [7] was 1.7; in [9], more than 584. This compound had a bioavailability in [8] of 74%. The Ki in [2] is more than 5260 nM.

Take `COc1cc(C(F)(F)F)ccc1C1CCN(Cc2nc3ncccc3n2C)CC1`: the EC50 in data set [1] came out at 13 nM. In addition, the Ki in data set [2] was determined as 2430 nM.

On to `Cn1c(CN2CCC(c3ccccc3C(F)(F)F)CC2)nc2ccccc21`, for which, in data set [1], the EC50 was determined as 109 nM.

In the case of `Cn1c(CN2CCC(c3ccc(Cl)cc3F)CC2)nc2ccccc21`, in [1], the concentration for a half-maximal effect (EC50) stood at 7.6 nM.

Turning to `Cn1c(CN2CCC(c3ccc(C(F)(F)F)cc3)CC2)nc2ccccc21`, the EC50 in data set [1] amounted to 78 nM. In [2], the Ki was 561 nM.

Take `Cn1c(CN2CCC(c3cccc(C#N)c3)CC2)nc2ccccc21`: the EC50 in [1] was 1620 nM.

As for `COc1cc(C(F)(F)F)ccc1[C@@H]1CCN(Cc2nc3ncccc3n2C)C[C@@H]1C`, the EC50 in data set [1] was 22 nM; in data set [10], 76 nM. This compound came in with a Cmax in data set [23] of 1580 nM. Besides, in data set [4], the Papp A→B at 1 µM worked out at 19 ×10⁻⁶ cm/s. Moreover, the Kp at 1 h amounted to 8 in data set [5] and 1.7 in [13]. Further, the result in data set [12], in data set [17], in data set [19], in data set [21] and in [22] was inactive. The compound further had a Fu in data set [14] of 0.6%. Further, the Ratio is 1.5 in [7] and more than 239 in data set [9]. The compound also came in with a Ki in data set [2] of more than 5260 nM.

As to `COc1cc(C(F)(F)F)ccc1[C@H]1CCN(Cc2nc3ncccc3n2C)C[C@H]1C`, the concentration giving a half-maximal response (EC50) in [1] is 787 nM.

Take `Cn1c(CN2CCC(c3ccc(F)cc3)CC2)nc2ccccc21`: the EC50 in data set [1] was found to be 159 nM. In addition, the Ki in [2] stood at 24 nM.

As to `Cn1c(CN2CCC(c3ccccc3F)CC2)nc2ccccc21`, the EC50 in data set [1] came out at 22 nM.

For the compound `Cn1c(CN2CCC(c3ccc(C(F)(F)F)cc3)CC2)nc2cnccc21`, the EC50 in data set [1] was 168 nM. Besides, the Ki in [2] was found to be 671 nM.

For the compound `Cn1c(CN2CCC(c3ccc(C(F)(F)F)cc3)CC2)nc2ccncc21`, the 50% effective concentration (EC50) in data set [1] amounted to 196 nM.

As to `Cn1c(CN2CCC(c3cccc(F)c3)CC2)nc2ccccc21`, the EC50 in data set [1] was 3310 nM.

For the compound `C[C@@H]1CN(Cc2nc3ncccc3n2C)CC[C@@H]1c1ccc(C(F)(F)F)cc1F`, the EC50 in data set [1] is 993 nM.

Take `Cn1c(CN2CCC(c3ccc(C(F)(F)F)cc3)CC2)nc2cccnc21`: the EC50 in [1] amounted to 285 nM.

Turning to `C[C@@H]1C[C@H](c2ccc(C(F)(F)F)cc2)CCN1Cc1nc2ncccc2n1C`, in [1], the EC50 came to 454 nM. The same compound had a Ki in data set [2] of 589 nM.

Regarding `C[C@@H]1CN(Cc2nc3ncccc3n2C)CC[C@@H]1c1ccc(Cl)cc1F`, the EC50 in data set [1] is more than 1810 nM.

On to `Cc1cc(C2CCN(Cc3nc4ccccc4n3C)CC2)nc(N2CCCC2)n1`, for which, in [1], the EC50 is 4790 nM.

Regarding `CNC(=O)c1cccc(C2CCN(Cc3nc4ccccc4n3C)CC2)c1`, in [1], the EC50 is more than 10000 nM.

For the compound `C[C@H]1CN(Cc2nc3ncccc3n2C)CC[C@H]1c1ccc(C(F)(F)F)cc1` (racemic), the EC50 in [1] was determined as 111 nM. In addition, the Ki in [2] was more than 2800 nM.

In the case of `Cn1c(CN2CCC(c3ccccc3Cl)CC2)nc2ccccc21`, in data set [1], the EC50 stood at 144 nM.

`C[C@@H]1CN(Cc2nc3ncccc3n2C)CC[C@@H]1c1ccc(C(F)(F)F)cc1`: the EC50 in data set [1] is more than 1990 nM. In data set [2], this compound had a Ki of more than 2800 nM.

Take `COc1ccccc1N1CCN(Cc2c(Br)c(=O)n(-c3ccccc3)n2C)CC1`: the EC50 in [1] is 891 nM.

With `Cn1c(CN2CCC(c3ccc(C(F)(F)F)cc3F)CC2)nc2ncccc21`, the EC50 in data set [1] is 25.1 nM. For the same compound, in data set [2], the inhibition constant (Ki) was 1780 nM.

The record behind these values is ChEMBL document CHEMBL1773004, “1-[(1-methyl-1H-imidazol-2-yl)methyl]-4-phenylpiperidines as mGluR2 positive allosteric modulators for the treatment of psychosis” (J Med Chem, 2011).
